Like-named read-outs stand apart in the source and are kept apart here.
Key:
[1] = molecular target: recombinant human NF-kappaB-inducing kinase (NIK/MAP3K14) (Homo sapiens, UniProt Q99558); test: Inhibition of auto-phosphorylation of recombinant human NIK/MAP3K14 activity (AlphaScreen), Biological Assay A; assay type: biochemical; conditions: averaged values over all measurements on all batches
In short: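 AlphaScreen detection with anti-phospho-IKK Ser176/180 antibody plus Protein A acceptor/glutathione donor beads after 1 h, 25 °C reaction of 0.2 nM GST-tagged kinase, 25 μM ATP and compound. Buffer: 50 mM Tris pH 7.5, MgCl2, EGTA, DTT, vanadate; 1% DMSO. IC50 fitted sigmoidally to % inhibition.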

[2] = test system: JJN-3 (NIK translocated) multiple myeloma cells; test: Antiproliferative activity on JJN-3 multiple myeloma cells (CellTiter-Glo, 96 hr), Biological Assay C; assay type: cell-based, human; conditions: JJN-3 (NIK translocated) cells, averaged values, read-out: JJN-3 Proliferation inhibition (IC50 (nM))
In short: (§1)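 Growth read-out was CellTiter-Glo luminescence after 96 h compound exposure, given as percent of no-drug control after subtracting a blank of cells read at dosing. Compounds ran as 9-point serial 1:3 dilutions in 0.3% DMSO, duplicate wells, on JJN-3 (15000/well) or KMS12-BM (20000/well) cells in RPMI 1640/10% FCS.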

[3] = test system: KMS12-BM (NIK WT) multiple myeloma cells; test: Antiproliferative activity on KMS12-BM multiple myeloma cells (CellTiter-Glo, 96 hr), Biological Assay C; assay type: cell-based, human; conditions: averaged values, read-out: KMS-12 Proliferation inhibition (IC50 (nM))
In short: as §1

[4] = test system: P-IKKα levels in L363 (NIK translocated multiple myeloma) cells; test: Effect of compounds on P-IKKα levels in L363 cells (Mesoscale sandwich immuno-assay), Biological Assay B; assay type: cell-based, human; conditions: 2 hr treatment, averaged values, read-out: Inhibition of pIKKα_L-363 (IC50 (nM))
In short: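 P-IKKα in lysates quantified by Mesoscale sandwich immunoassay after 2 h compound exposure in 1% DMSO, duplicate wells, 8-point 1:3 series. Human L363 cells had been preincubated 24 h with BAFF (1 μg/ml stock). Blank (10 μM ADS125117) subtracted; IC50 fitted sigmoidally to % inhibition of control.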

recombinant human NF-kappaB-inducing kinase (NIK/MAP3K14), sequence (Q99558 whole entry): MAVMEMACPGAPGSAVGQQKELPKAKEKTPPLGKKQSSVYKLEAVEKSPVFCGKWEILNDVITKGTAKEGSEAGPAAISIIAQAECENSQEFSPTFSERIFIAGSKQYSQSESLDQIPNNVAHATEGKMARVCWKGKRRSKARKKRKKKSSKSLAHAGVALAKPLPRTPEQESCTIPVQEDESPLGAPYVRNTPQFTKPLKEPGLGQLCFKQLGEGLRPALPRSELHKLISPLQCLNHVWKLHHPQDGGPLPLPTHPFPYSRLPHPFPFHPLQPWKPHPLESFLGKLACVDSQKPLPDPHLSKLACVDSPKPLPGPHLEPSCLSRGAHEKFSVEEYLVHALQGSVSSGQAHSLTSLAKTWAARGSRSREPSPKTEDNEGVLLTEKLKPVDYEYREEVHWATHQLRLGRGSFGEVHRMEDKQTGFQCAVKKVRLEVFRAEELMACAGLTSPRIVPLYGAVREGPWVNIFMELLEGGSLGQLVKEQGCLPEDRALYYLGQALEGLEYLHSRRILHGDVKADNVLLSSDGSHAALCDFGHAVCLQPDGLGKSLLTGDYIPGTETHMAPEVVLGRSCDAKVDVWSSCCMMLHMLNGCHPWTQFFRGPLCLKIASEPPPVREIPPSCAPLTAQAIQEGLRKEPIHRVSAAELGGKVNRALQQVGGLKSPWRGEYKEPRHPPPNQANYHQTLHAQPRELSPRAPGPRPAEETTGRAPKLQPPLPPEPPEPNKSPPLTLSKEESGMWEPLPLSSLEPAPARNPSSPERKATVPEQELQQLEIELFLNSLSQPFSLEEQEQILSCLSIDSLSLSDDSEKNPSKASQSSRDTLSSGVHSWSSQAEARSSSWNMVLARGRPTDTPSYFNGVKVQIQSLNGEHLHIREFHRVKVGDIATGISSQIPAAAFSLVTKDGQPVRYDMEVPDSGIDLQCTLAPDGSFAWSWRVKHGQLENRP

| IC50 [1] [nM] | IC50 ([2]; Homo sapiens, JJN-3, 96 h) [nM] | IC50 ([3]; Homo sapiens, KMS-12-BM, 96 h) [nM] | IC50 ([4]; Homo sapiens, L-363, 2 h) [nM] | melting point [°C] | IC50 [2] [nM] | IC50 [3] [nM] | IC50 [4] [nM] | Compound |
| --- | --- | --- | --- | --- | --- | --- | --- | --- |
| 19.9 | 78 | > 10000 | 5.2 | 186 |  |  |  | Cc1ccc(C#N)cc1Nc1nccc(-c2cc(C#N)c3c(c2)[C@@](C)(COC(=O)CN2CCOCC2)CN3)n1 [Compound 146] |
| 3.5 | 467 | > 10000 | 7.7 | 218 |  |  |  | CNC(=O)c1cc(Nc2nccc(-c3cc(C#N)c4c(c3)[C@@](C)(CO)CN4)n2)c(C)cc1F [Compound 155] |
| 4.8 | 251 | > 10000 | 7.8 | 206 |  |  |  | CNC(=O)c1cc(Nc2nccc(-c3cc(C#N)c4c(c3)[C@@](C)(CO)CN4)n2)c(OC2CC2)cc1F [Compound 156] |
| 4.9 | 178 | ~7590 | 12.9 | 235 |  |  |  | CNC(=O)c1cc(Nc2nccc(-c3cc(C#N)c4c(c3)[C@@](C)(CO)CN4)n2)c(F)cc1OC1CC1 [Compound 157] |
| 5.5 | 4790 | > 10000 | 20.4 | 140 |  |  |  | Cc1ccc(C(=O)NCCN2CCOCC2)cc1Nc1nccc(-c2cc(C#N)c3c(c2)[C@@](C)(CO)CN3)n1 [Compound 159] |
| 11.2 | 4790 | > 10000 | 64.6 | 206 |  |  |  | Cc1ccc(C(=O)N(C)C)cc1Nc1nccc(-c2cc(C#N)c3c(c2)[C@@](C)(CO)CN3)n1 [Compound 160] |
| 3.6 | 1120 | ~5250 | 6 | 224 |  |  |  | CNC(=O)c1cc(Nc2nccc(-c3cc(C#N)c4c(c3)[C@@](C)(CO)CN4)n2)c(F)cc1F [Compound 165] |
| 1 | 81 | ~4680 | 2.3 | 207 |  |  |  | Cc1cc(CCCN)c(C#N)cc1Nc1nccc(-c2cc(C#N)c3c(c2)[C@@](C)(CO)CN3)n1 [Compound 170] |
| 1.1 | 955 | > 10000 | 34.7 | 249 |  |  |  | Cc1cc(C#CCN)c(C#N)cc1Nc1nccc(-c2cc(C#N)c3c(c2)[C@@](C)(CO)CN3)n1 [Compound 171] |
| 4.8 | 65 | > 10000 | 2.4 | 193 |  |  |  | CCC(=O)NCCCc1cc(C)c(Nc2nccc(-c3cc(C#N)c4c(c3)[C@@](C)(CO)CN4)n2)cc1C#N [Compound 172] |
| 3.5 | 71 | > 10000 | 2 | 211 |  |  |  | Cc1cc(CCN2CC(F)C2)c(C#N)cc1Nc1nccc(-c2cc(C#N)c3c(c2)[C@@](C)(CO)CN3)n1 [Compound 174] |
| 1.8 | 27 | ~191 | 2.8 | 226 |  |  |  | Cc1cc(C2CCN(C)CC2)c(C#N)cc1Nc1nccc(-c2cc(C#N)c3c(c2)[C@@](C)(CO)CN3)n1 [Compound 175] |
| 3.2 |  |  | 1.2 | 222 | 14 | ~246 |  | Cc1cc(C2CCCN(C)C2)c(C#N)cc1Nc1nccc(-c2cc(C#N)c3c(c2)[C@@](C)(CO)CN3)n1 (stereo partly shown) [Compound 177] |
| 2.2 |  |  |  | 188 | 58 | 1290 | 1.4 | Cc1cc(C2CCCN(C)C2)c(C#N)cc1Nc1nccc(-c2cc(C#N)c3c(c2)[C@@](C)(CO)CN3)n1 (stereo partly shown) [Compound 179] |
| 9.1 | 501 | > 10000 | 7.1 | 209 |  |  |  | Cc1cc(F)c(C(=O)NCC2COC2)cc1Nc1nccc(-c2cc(C#N)c3c(c2)[C@@](C)(CO)CN3)n1 [Compound 183] |
| 2.8 | 178 | > 10000 | 19.1 | 134 |  |  |  | C[C@]1(CO)CNc2c(C#N)cc(-c3ccnc(Nc4cc(C#N)ccc4CCCCN)n3)cc21 [Compound 184] |
| 2.6 | 54 | > 10000 | 5.4 | 190 |  |  |  | Cc1cc(-c2cnn(C)c2)c(C#N)cc1Nc1nccc(-c2cc(C#N)c3c(c2)[C@@](C)(CO)CN3)n1 [Compound 188] |
| 72.4 | 1180 | 537 | 2950 | 250 |  |  |  | Cc1ccc(C2CCN(C)CC2)cc1Nc1nccc(-c2cc(C#N)c3c(c2)[C@@](C)(CO)CN3)n1 [Compound 192] |
| 1.6 | 22 | > 10000 | 1.7 | 188 |  |  |  | Cc1c(CO)cc(C#N)cc1Nc1nccc(-c2cc(C#N)c3c(c2)[C@@](C)(CO)CN3)n1 [Compound 193] |
| 3.6 | 17 | 479 | 1.4 | 193 |  |  |  | Cc1c(CN2CC(C)OC(C)C2)cc(C#N)cc1Nc1nccc(-c2cc(C#N)c3c(c2)[C@@](C)(CO)CN3)n1 (stereo partly shown) [Compound 194] |
| 6.2 | 30 | ~3720 | 1.9 | 210 |  |  |  | Cc1c(CN2CC(F)C2)cc(C#N)cc1Nc1nccc(-c2cc(C#N)c3c(c2)[C@@](C)(CO)CN3)n1 [Compound 195] |
| 7.8 | 14 | > 10000 | 1 | 240 |  |  |  | Cc1c(CN2CC(F)(F)C2)cc(C#N)cc1Nc1nccc(-c2cc(C#N)c3c(c2)[C@@](C)(CO)CN3)n1 [Compound 196] |
| 6 | 33 | ~240 | 4.8 | 223 |  |  |  | Cc1c(CN2CC(C)OC(C)C2)cccc1Nc1nccc(-c2cc(C#N)c3c(c2)[C@@](C)(CO)CN3)n1 (stereo partly shown) [Compound 197] |
| 4.6 | 63 | ~550 | 5.6 | 222 |  |  |  | [2H]C([2H])(c1cccc(Nc2nccc(-c3cc(C#N)c4c(c3)[C@@](C)(CO)CN4)n2)c1C)N1CC(C)OC(C)C1 (stereo partly shown) [Compound 198] |
| 6.9 | 76 | > 10000 | 7.4 | 170 |  |  |  | Cc1c(Nc2nccc(-c3cc(C#N)c4c(c3)[C@@](C)(CO)CN4)n2)cccc1C(=O)N1CC(C)OC(C)C1 (stereo partly shown) [Compound 199] |
| 1.7 | 41 | > 10000 | ~0.66 | 260 |  |  |  | COC(=O)c1cc(C#N)cc(Nc2nccc(-c3cc(C#N)c4c(c3)[C@@](C)(CO)CN4)n2)c1C [Compound 200] |
